From US20250074871A1, “PHENETHYLAMINES AND METHODS OF PREPARATION THEREOF” (priority 2022, published 2025)
Values joined by “and” are separate entries in the source; they are usually repeats but may differ in a detail not shown here. Identical values can stand only once. Like-named read-outs stand apart in the source and are kept apart here.

Legend:
[1] = target: T1, 5-HT2A receptor (Homo sapiens, UniProt P28223); assay: 5-HT2A Gq dissociation BRET functional assay; type: cell-based; conditions: for 5-HT2A BRET Eff %: normalized to % 5-HT stimulation
T1 construct: expressed in transfected cells; host or cells: HEK293T

[2] = target: T2, 5-HT2B receptor (Homo sapiens, UniProt P41595); assay: 5-HT2B Gq dissociation BRET functional assay; type: cell-based; conditions: for 5-HT2B BRET Eff %: normalized to % 5-HT stimulation
T2 construct: expressed in transfected cells; host or cells: HEK293T

[3] = target: T3, 5-HT1A (Homo sapiens, UniProt P08908); assay: 5-HT receptor activity panel (Table 3); type: cell-based; conditions: Table 3
T3 sequence (P08908 1-422): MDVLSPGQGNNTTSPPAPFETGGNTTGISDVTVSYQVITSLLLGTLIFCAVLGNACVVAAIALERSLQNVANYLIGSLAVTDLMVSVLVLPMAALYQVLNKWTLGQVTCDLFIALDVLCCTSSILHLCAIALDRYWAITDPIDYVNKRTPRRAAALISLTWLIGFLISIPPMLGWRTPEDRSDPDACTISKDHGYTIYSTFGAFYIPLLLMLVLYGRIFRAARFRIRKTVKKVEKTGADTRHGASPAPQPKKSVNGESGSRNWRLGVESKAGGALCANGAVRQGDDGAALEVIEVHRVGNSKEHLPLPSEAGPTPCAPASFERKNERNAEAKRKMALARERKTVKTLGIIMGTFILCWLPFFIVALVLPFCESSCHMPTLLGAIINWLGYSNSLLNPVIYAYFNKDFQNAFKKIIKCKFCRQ

[4] = target: 5-HT1D (Homo sapiens, UniProt P28221); assay: 5-HT receptor activity panel (Table 3); type: cell-based; conditions: Table 3
[5] = target: T4, 5-HT1F (Homo sapiens, UniProt P30939); assay: 5-HT receptor activity panel (Table 3); type: cell-based
T4 sequence (P30939 1-366): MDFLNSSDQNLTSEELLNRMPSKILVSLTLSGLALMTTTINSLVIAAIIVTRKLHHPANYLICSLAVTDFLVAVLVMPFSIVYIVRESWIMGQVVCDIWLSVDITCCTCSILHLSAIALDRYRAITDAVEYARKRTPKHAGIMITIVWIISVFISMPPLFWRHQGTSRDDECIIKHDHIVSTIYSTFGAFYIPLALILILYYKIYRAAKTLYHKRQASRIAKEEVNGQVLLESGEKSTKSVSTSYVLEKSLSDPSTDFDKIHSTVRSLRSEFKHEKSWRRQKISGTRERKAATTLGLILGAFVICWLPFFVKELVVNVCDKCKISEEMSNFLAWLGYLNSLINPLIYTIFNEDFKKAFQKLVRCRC

[6] = target: 5-HT4 (Homo sapiens, UniProt Q13639); assay: 5-HT receptor activity panel (Table 3); type: cell-based; conditions: Table 3
[7] = target: 5-HT5A (Homo sapiens, UniProt P47898); assay: 5-HT receptor activity panel (Table 3); type: cell-based; conditions: Table 3
[8] = target: T5, human ether-a-go-go-related gene (hERG) K+ channel (Homo sapiens, UniProt Q12809); assay: Eurofins hERG Qube APC Assay; type: cell-based; conditions: for IC50 (hERG)/EC50 (5-HT2A) ratio: Table 4
T5 construct: Eurofins
Excerpt: As used herein and unless otherwise specified, the term “hERG risk” refers to the risk of a compound potentially inhibiting the human ether-a-go-go-related gene (hERG) K^+ channel, thereby leading to QT prolongation.
As a result of, many compounds disclosed in Table 1 and Table 2 were screened for the potential of “hERG risk” using pharmacological assays (e.g. Eurofins™ hERG Qube APC Assay). […].

[9] = in vitro hepatocyte clearance, human; type: in vitro ADME; conditions: Human hepatocytes; for hepatocyte CLint: read-out: In vitro Clint (μL/min/10^6 cells); for half-life: read-out: In vitro T1/2; for CLint scaled: read-out: Scale-up Clint
Description: (§1) Additional experimentation was performed on compound 109. Table 6 summarizes, among other things, the anticipated hepatic clearance of compound 109 in various species, as specified in Table 6 and as determined by calculating the in vitro hepatocyte clearance over time and scaling such rate with such species' hepatocyte count and the anticipated liver blood flow rate in such species.

[10] = system: hepatocyte; assay: in vitro hepatocyte clearance, human; type: in vitro ADME; conditions: Human
Description: as §1

[11] = in vitro hepatocyte clearance, monkey; type: in vitro ADME; conditions: Monkey hepatocytes; for hepatocyte CLint: read-out: In vitro Clint (μL/min/10^6 cells); for half-life: read-out: In vitro T1/2; for CLint scaled: read-out: Scale-up Clint
Description: as §1

[12] = system: hepatocyte; assay: in vitro hepatocyte clearance, monkey; type: in vitro ADME; conditions: Monkey
Description: as §1

[13] = in vitro hepatocyte clearance, dog; type: in vitro ADME; conditions: for hepatocyte CLint / half-life: Dog hepatocytes; for hepatocyte CLint: read-out: In vitro Clint (μL/min/10^6 cells); for half-life: read-out: In vitro T1/2; for CLint scaled: dog, hepatocytes, read-out: Scale-up Clint
Description: as §1

[14] = system: hepatocyte; assay: in vitro hepatocyte clearance, dog; type: in vitro ADME; conditions: Dog
Description: as §1

[15] = plasma and brain PK in mice; type: in vivo; conditions: mouse; for Kp: brain; for clearance: read-out: Cltot (converted); for half-life: read-out: T1/2 Vz (converted); for Vd: read-out: Vz
Excerpt: (§2) Table 7a and Table 7b summarize, among other things, the observed plasma and Brain P K properties in animals, and the observed plasma and Brain P K properties predicted in humans, for compound 109 in Table 7a and compound 93 for Table 7b: […]

[16] = plasma and brain PK in rat; type: in vivo; conditions: for Kp: brain; for clearance: read-out: Cltot (converted); for half-life: read-out: T1/2 Vz (converted); for Vd: read-out: Vz
Excerpt: as §2

[17] = plasma PK in dog; type: in vivo; conditions: for clearance / half-life / Vd: dog; for clearance: read-out: Cltot (converted); for half-life: read-out: T1/2 Vz (converted); for Vd: read-out: Vz
Excerpt: as §2

[18] = plasma and brain PK predicted in humans; conditions: Human (predicted); for Kp: brain; for clearance: read-out: Cltot (converted); for half-life: read-out: T1/2 Vz (converted); for Vd: read-out: Vz
Excerpt: as §2

[19] = read-out: Brain Plasma AUC Ratio

Sequence of 5-HT5A (P47898 whole entry, species assumed): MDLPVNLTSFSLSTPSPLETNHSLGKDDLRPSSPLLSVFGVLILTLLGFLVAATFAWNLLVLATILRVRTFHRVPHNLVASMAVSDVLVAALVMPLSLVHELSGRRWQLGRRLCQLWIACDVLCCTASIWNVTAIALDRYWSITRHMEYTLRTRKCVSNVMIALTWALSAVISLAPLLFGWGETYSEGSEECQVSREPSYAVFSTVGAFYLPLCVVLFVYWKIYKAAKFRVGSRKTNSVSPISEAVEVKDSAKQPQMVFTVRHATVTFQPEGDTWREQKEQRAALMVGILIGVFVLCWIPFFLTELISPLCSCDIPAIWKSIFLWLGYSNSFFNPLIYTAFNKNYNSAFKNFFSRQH
T1 sequence (P28223 whole entry): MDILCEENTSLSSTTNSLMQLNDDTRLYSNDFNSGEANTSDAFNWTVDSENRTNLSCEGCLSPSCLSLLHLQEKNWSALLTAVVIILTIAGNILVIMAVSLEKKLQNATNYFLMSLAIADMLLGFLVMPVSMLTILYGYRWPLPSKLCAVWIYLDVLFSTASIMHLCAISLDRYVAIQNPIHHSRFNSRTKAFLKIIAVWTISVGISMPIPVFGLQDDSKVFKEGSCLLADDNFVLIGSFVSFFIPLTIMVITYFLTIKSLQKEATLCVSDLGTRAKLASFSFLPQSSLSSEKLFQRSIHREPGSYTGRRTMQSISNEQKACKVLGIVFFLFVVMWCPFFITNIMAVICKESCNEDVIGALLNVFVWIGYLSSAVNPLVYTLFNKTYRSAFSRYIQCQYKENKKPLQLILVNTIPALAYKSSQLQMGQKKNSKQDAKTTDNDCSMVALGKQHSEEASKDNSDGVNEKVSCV
T2 sequence (P41595 whole entry): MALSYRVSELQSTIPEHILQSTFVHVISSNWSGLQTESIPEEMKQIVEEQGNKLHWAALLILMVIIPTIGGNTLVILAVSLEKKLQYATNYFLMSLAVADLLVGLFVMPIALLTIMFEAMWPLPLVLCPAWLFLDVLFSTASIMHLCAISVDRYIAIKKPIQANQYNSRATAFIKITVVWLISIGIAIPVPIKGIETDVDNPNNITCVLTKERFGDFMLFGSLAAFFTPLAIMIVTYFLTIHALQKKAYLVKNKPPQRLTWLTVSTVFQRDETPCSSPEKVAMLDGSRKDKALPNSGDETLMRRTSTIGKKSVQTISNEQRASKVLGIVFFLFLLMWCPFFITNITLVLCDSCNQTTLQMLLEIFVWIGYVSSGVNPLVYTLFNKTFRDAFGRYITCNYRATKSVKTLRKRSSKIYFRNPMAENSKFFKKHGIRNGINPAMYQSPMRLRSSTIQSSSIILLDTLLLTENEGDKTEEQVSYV
T5 sequence (Q12809 whole entry): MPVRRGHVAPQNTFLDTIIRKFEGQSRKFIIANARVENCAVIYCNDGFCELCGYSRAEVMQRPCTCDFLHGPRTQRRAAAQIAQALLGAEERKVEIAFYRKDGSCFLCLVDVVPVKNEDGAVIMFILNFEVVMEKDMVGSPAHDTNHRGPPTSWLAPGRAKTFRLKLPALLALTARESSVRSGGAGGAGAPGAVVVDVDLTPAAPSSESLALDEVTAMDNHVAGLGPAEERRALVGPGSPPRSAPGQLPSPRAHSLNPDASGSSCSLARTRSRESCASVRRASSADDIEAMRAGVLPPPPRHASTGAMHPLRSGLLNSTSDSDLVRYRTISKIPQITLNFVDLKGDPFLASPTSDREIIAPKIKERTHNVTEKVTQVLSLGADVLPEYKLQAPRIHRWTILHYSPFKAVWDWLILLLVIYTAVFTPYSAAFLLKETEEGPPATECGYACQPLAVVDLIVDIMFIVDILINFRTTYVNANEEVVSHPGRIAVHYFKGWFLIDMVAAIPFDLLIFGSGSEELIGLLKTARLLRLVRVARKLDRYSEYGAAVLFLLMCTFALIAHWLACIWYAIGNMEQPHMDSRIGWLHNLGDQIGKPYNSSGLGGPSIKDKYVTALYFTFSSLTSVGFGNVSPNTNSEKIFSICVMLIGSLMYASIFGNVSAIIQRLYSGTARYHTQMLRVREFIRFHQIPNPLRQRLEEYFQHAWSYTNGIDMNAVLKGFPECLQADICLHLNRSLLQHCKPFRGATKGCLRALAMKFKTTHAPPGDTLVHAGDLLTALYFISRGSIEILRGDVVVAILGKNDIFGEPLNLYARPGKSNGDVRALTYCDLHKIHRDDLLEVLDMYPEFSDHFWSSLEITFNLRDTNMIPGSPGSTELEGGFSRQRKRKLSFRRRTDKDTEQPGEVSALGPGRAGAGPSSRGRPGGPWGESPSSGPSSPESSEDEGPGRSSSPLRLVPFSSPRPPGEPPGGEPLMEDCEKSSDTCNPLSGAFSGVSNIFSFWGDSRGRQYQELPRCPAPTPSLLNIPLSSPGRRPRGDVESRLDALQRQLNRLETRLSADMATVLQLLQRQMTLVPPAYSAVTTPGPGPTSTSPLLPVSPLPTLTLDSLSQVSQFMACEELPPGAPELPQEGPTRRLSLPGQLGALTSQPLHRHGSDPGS
Sequence of 5-HT1D (P28221 whole entry, species assumed): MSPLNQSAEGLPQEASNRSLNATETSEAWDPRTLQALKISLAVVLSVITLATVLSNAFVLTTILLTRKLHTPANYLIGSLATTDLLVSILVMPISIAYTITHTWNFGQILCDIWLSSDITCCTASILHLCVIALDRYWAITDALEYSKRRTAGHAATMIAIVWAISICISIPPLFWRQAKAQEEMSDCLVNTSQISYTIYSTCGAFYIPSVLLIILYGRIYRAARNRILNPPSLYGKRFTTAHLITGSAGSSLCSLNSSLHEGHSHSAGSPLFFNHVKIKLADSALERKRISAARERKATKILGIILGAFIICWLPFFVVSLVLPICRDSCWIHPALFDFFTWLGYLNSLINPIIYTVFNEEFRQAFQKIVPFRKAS
Sequence of 5-HT4 (Q13639 whole entry, species assumed): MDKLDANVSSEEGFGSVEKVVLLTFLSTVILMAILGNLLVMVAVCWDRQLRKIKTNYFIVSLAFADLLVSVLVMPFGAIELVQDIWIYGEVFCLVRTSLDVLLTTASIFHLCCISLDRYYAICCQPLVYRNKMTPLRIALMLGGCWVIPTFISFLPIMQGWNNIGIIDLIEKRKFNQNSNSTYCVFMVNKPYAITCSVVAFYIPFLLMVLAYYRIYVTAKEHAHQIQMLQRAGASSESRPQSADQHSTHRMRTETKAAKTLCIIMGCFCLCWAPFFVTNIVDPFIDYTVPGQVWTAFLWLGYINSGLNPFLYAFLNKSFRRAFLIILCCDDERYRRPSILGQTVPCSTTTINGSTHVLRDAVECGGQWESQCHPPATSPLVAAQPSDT

SMILES: COc1cc(C(F)(F)F)ccc1CCNCc1ccccc1O [Cpd #93]
- EC50 ([1]; 5-HT2A BRET EC50 (nM), Table 2, at least three replicate trials): 0.7 nM and 1.17 nM
- EC50 ([1]; 5-HT2A EC50, nM, Table 3 panel): 0.3 nM
- EC50 ([1]; EC50 BRET 2A, Table 4, unit inferred): 1.2 nM
- 5-HT2A BRET Eff % ([1]; Table 2): 96% and 91%
- 5-HT2A Eff, % ([1]; Table 3 panel): 96%
- EC50 ([2]; 5-HT2B BRET EC50 (nM), Table 2, at least three replicate trials): 62.3 nM and 96.2 nM
- EC50 ([2]; 5-HT2B EC50, nM, Table 3 panel): 64.2 nM
- 5-HT2B BRET Eff % ([2]; Table 2): 53% and 52%
- 5-HT2B Eff, % ([2]; Table 3 panel): 50%
- 5-HT1A EC50, nM [3]: Not active
- 5-HT1D EC50, nM [4]: Not active
- EC50 [5]: 8090 nM
- 5-HT1F Eff, % ([5]; Table 3): 69%
- 5-HT4 EC50, nM [6]: Not active
- 5-HT5A EC50, nM [7]: Not active
- IC50 [8]: 620 nM
- IC50 (hERG)/EC50 (5-HT2A) ratio [8]: 517
- hepatocyte CLint [9]: 54.8 µL/min/1e6 cells
- half-life [9]: 25.3 min
- CLint scaled [9]: 140 mL/min/kg
- Predicted hepatic CL [10]: 18.03 mL/min/kg
- hepatocyte CLint [11]: 467 µL/min/1e6 cells
- half-life [11]: 2.97 min
- CLint scaled [11]: 1680 mL/min/kg
- Predicted hepatic CL [12]: 42.50 mL/min/kg
- hepatocyte CLint [13]: 337 µL/min/1e6 cells
- half-life [13]: 4.11 min
- CLint scaled [13]: 2320 mL/min/kg
- Predicted hepatic CL [14]: 30.49 mL/min/kg
- Kp ([15]; read-out: Brain/plasma Ratio): 15.6
- clearance ([15]; plasma): 197 mL/min/kg
- half-life ([15]; plasma): 54 min
- Vd ([15]; plasma): 15.1 L/kg
- Kp ([16]; rat, read-out: Brain/plasma Ratio): 19.6
- clearance ([16]; rat, plasma): 127 mL/min/kg
- half-life ([16]; rat, plasma): 82.8 min
- Vd ([16]; rat, plasma): 15.2 L/kg
- clearance [17]: 53.1 mL/min/kg
- half-life [17]: 99.6 min
- Vd [17]: 7.7 L/kg
- Kp ([18]; read-out: Brain/plasma Ratio): 9.55
- clearance ([18]; plasma): 37.9 mL/min/kg
- half-life ([18]; plasma): 117 min
- Vd ([18]; plasma): 6.39 L/kg

SMILES: CSc1ccccc1CNCCc1ccc(C#N)cc1O [Cpd #109]
- EC50 ([1]; Table 2, at least three replicate trials, read-out: 5-HT2A BRET EC50): 5.1 nM
- 5-HT2A BRET Eff % ([1]; Table 2): 102%
- 5-HT2A Eff, % ([1]; Table 3 panel): 99%
- EC50 ([1]; Table 3 panel, read-out: 5-HT2A EC50): 4.8 nM
- EC50 ([1]; Table 4, unit inferred, read-out: EC50 BRET 2A): 4.8 nM
- EC50 ([2]; Table 2, at least three replicate trials, read-out: 5-HT2B BRET EC50): 3140 nM
- 5-HT2B BRET Eff % ([2]; Table 2): 95%
- 5-HT2B Eff, % ([2]; Table 3 panel): 84%
- EC50 ([2]; Table 3 panel, read-out: 5-HT2B EC50): 3090 nM
- 5-HT1A Eff, % [3]: 3%
- EC50 ([3]; read-out: 5-HT1A EC50): 4270 nM
- 5-HT1D Eff, % [4]: 6%
- EC50 ([4]; read-out: 5-HT1D EC50): 379 nM
- 5-HT1F Eff, % ([5]; Table 3): 12%
- EC50 ([5]; Table 3, read-out: 5-HT1F EC50): 582 nM
- 5-HT4 Eff, % [6]: −3%
- EC50 ([6]; read-out: 5-HT4 EC50): 0.2 nM
- 5-HT5A Eff, % [7]: −133%
- EC50 ([7]; read-out: 5-HT5A EC50): 12300 nM
- IC50 [8]: 2900 nM
- IC50 (hERG)/EC50 (5-HT2A) ratio [8]: 604
- hepatocyte CLint [9]: 609 µL/min/1e6 cells
- half-life [9]: 2.28 min
- CLint scaled [9]: 1550 mL/min/kg
- Hepatic Extraction Ratio (E) [10]: 0.99
- Predicted hepatic CL [10]: 20.43 mL/min/kg
- hepatocyte CLint [11]: 499 µL/min/1e6 cells
- half-life [11]: 2.78 min
- CLint scaled [11]: 1800 mL/min/kg
- Hepatic Extraction Ratio (E) [12]: 0.98
- Predicted hepatic CL [12]: 42.57 mL/min/kg
- hepatocyte CLint [13]: 199 µL/min/1e6 cells
- half-life [13]: 6.96 min
- CLint scaled [13]: 1370 mL/min/kg
- Hepatic Extraction Ratio (E) [14]: 0.98
- Predicted hepatic CL [14]: 30.22 mL/min/kg
- Kp [15, 19]: 8.39
- bioavailability ([15]; plasma, IM, read-out: IM f (%)): 144%
- clearance ([15]; plasma): 286 mL/min/kg
- half-life ([15]; plasma): 36 min
- Vd ([15]; plasma): 14 L/kg
- plasma t1/2 ([16]; healthy rat subjects (text b114)): less than an hour
- bioavailability ([16]; plasma, rat, IM, read-out: IM f (%)): 92.8%
- Kp ([16]; rat, read-out: Brain Plasma AUC Ratio): 2.18
- clearance ([16]; rat, plasma): 53.4 mL/min/kg
- half-life ([16]; rat, plasma): 126 min
- Vd ([16]; rat, plasma): 9.37 L/kg
- bioavailability ([17]; Dog, IM, read-out: IM f (%)): 120%
- clearance [17]: 39.7 mL/min/kg
- half-life [17]: 78 min
- Vd [17]: 4.33 L/kg
- Kp [18, 19]: 2.14
- bioavailability ([18]; plasma, IM, read-out: IM f (%)): 100%
- clearance ([18]; plasma): 16.2 mL/min/kg
- half-life ([18]; plasma): 120 min
- Vd ([18]; plasma): 2.78 L/kg
